In patent US20140315972A1, “RS)-2-(2-oxo-4-phenylpyrrolidin-1-yl)acetamide compound having modulatory activity with a commensurate effect, pharmaceutical substance (variants) and its application, composition (variants) thereof” (priority 2011, published 2014):
“And” between values parts separate entries of the source, which are not always exact repeats. Identical values can stand only once. Marks after values point to notes of the source that are not given here.

Columns and labels:
[1] = tested on: rats; experiment: Forced swimming by Porsolt (behavioral despair), rat pups; assay type: in vivo; details: for Duration of immobilization vs control: listed as Phenotropil
Experimental: The antidepressant effect of Phenotropil was studied in adult rats (185-218 g) and rat pups of 28-35 days of age (85-110 g). The test drugs were injected intraperitoneally in the first case and intragastrically in the second case 40 min before the tests. The methods of behavioral despair during forced swimming (Porsolt et al., 1978) and forced swimming with freely rotating wheels (Nomura et al., 1982) were used.

[2] = tested on: influenza; experiment: Respiratory viral infection (influenza) of mice during life duration study; assay type: in vivo; details: influenza outbreak
[3] = tested on: patients; experiment: Topical solution on periodontal, enamel and dentin condition; assay type: in vivo, human; details: for Efficacy on a 4-point scale (periodontal, enamel and dentin condition): humans, topical
Source text: Studies of the effects of Phenotropil on condition of paradontium, enamel and dentin with topic application involved men and women (45-54 years) diagnosed with periodontitis, parodontosis and caries. Enrollment of groups by separate indicators in this age failed. In the vast majority of subjects, the diseases were combined. The gender ratio in groups was: 30.0% men and 70.0% women, the ratio of smokers to non-smokers 60:40, the number of female smokers was higher than male smokers by 35.0%. All patients received every three days the required amount of 0.1%, 0.2% or 0.3% solution of Phenotropil or placebo. The solutions were applied daily as dental trays (for 30 sec.) in the morning and evening at 30 ml per application for 30 days. Food and drinks intake, including water, were not recommended for 2 hours after the procedure. All patients underwent a dental check-up and standard hygienic treatment with removing plaque and dental scale and lavaging the gingival pockets with 1% Phenotropil solution. For each subject, the studied parameters were recorded; the aggregate integral indicator of the general periodontal condition of enamel and dentin was calculated, in the negative scores. The examinations were conducted once a week throughout the period of monotherapy. Simultaneous studies were conducted for evaluation of lipid peroxidation state in samples of saliva, at the baseline examination and after the course of therapy.
The positive effect of treatment with Phenotropil was observed after about 14 days and intensified in the course of therapy. Efficacy after one month of treatment with the drug was the highest and most evident at the initial stages of disease and moderate severity of […]. Effect on periodontitis was apparent, but less pronounced. Treatment of periodontitis probably requires a longer course and administration of Phenotropil tablets according to the usual regime to modulate the general functional state of the body. The ranking evaluation of efficacy (0—no effect, 1—slightly pronounced effect below 30.0% in the group, 2—average degree of efficacy from 30.0 to 50.0%, 3—high efficacy, above 50.0%) was established by an integral indicator of the aggregate of all the parameters tested.

[4] = tested on: women; experiment: Migraine attacks, intranasal drops; assay type: in vivo, human
Experimental: Table 27 presents the results of studies in women (22-35 years) diagnosed with migraine without aura (simple migraine)—5 subjects, and migraine with aura (classic migraine)—5 subjects. Phenotropil as used as nasal drops (0.1% sterile solution), 10 drops three times a day for 7 days for the purpose of relief and prevention of migraine attacks at onset of prodromal phenomena and aura episodes. 5 drops of the solution were administered into each nostril. One drop of the 0.1% standard solution contained 0.05 mg of Phenotropil.

[5] = 0.1% nasal drops, 10 drops three times a day 7 days
[6] = migraine attacks, humans, intranasally 0.5 mg × 3 times per day

## NC(=O)CN1CC(c2ccccc2)CC1=O (racemic) [Compound 1, (RS)-2-(2-oxo-4-phenylpyrrolidine-1-yl)acetamide]
[1]; intragastric 100 mg/kg
  Duration of immobilization: 86.35 ± 51.97 s
  Duration of immobilization vs control: −79.8% and −79.77 * %
[1]; intragastric 200 mg/kg
  Duration of immobilization: 118.72 ± 80.04 s
  Duration of immobilization vs control: −72.2% and −72.19 * %
[2]
  surviving mice that did not get sick: 46%
  surviving mice that had been ill but survived: 54%
[2]; all control animals died
  mice died, total in treated groups: 15%
[3]; 0.1-0.3% solution as dental trays, 30 days
  smokers who quit smoking at the third week of therapy: 25.0%
[3]; Phenotropil 1%
  Efficacy on a 4-point scale (periodontal, enamel and dentin condition): 2* (average degree of efficacy from 30.0 to 50.0%)
[3]; Phenotropil 2%
  Efficacy on a 4-point scale (periodontal, enamel and dentin condition): 3* (high efficacy, above 50.0%)
[3]; Phenotropil 3%
  Efficacy on a 4-point scale (periodontal, enamel and dentin condition): 3* (high efficacy, above 50.0%)
[4]; [5]
  patients (of 10) with headaches and their duration decreased significantly: 3
  patients (of 10) with no effect: 2
  patients (of 10) with prodrome and aura completely stopped without headache attacks: 5
[4]; [6]
  Efficacy: % of subjects with no effect: 20%
  Efficacy: % of subjects with partial effect: 30%
  Efficacy: subjects with 100% efficacy: 5/10 - 100% efficacy ^
  Efficacy: subjects with no effect: 2/10
  Efficacy: subjects with partial effect: 3/10
